Where “and” joins values, the source holds several entries; their conditions need not be identical. Equal entries are not always repeated. Entries after “also recorded” stand apart in the source; their conditions may differ. Where two headings read alike, the source gives them in different places.
Key:
[1] = Clinical pharmacokinetics and pharmacodynamics of dabigatran etexilate; format: in vivo
From the text: Ezekowitz M D, et al., Dabigatran with or without concomitant aspirin compared with warfarin alone in patients with nonvalvular atrial fibrillation (PETRO study), Am. […] The PETRO study is described below.
As noted above, management of warfarin therapy is complex, and failure to adequately monitor patients is associated with risk. […] It also interacts with many common foods, drugs and alcohol which alter its therapeutic effect, putting patients at risk of either a bleeding or thrombotic event. Therefore, warfarin therapy requires careful individualized dosing and frequent monitoring. The significant limitations of VKAs have created a need for an oral anticoagulant with a rapid onset of action, minimal drug interactions, and a predictable anticoagulation effect that needs no monitoring.
Peak levels are seen within 2-3 hours of oral administration. […] Steady-state is reached within 2-3 days with a twice daily regimen. […] The remainder undergoes conjugation with glucuronic acid to form acylglucuronides which are excreted primarily in the bile.

[2] = tested on: patients with atrial fibrillation
Procedure: The PETRO-Ex study was conducted in 52 centers in the United States, Denmark, The Netherlands, and Sweden.
PETRO-Ex began while the PETRO study was ongoing and investigators were initially kept blinded to patient treatment group until PETRO was completed. Unblinding investigators to patient treatment was possible thereafter.
Data were summarized descriptively; no hypothesis was to be tested. Events were analyzed on the basis of the treatment at onset. Incidences were reported as of patients with events as well as normalized to 100 patient-years on the respective treatment.
Patients who were down titrated to 50 mg q.d. based on a glomerular filtration rate≦50 mL/min during PETRO were excluded from the long-term trial; patients down-titrated in other dose levels remained on the q.d. treatment at that dose.
The total exposure reflects both trials, PETRO and PETRO-Ex, together.

[3] = tested on: activated partial thromboplastin time (aPTT), ecarin clotting time, and thrombin clotting time; assay: Clotting time tests
From the text: The anticoagulant effects parallel plasma concentrations.

[4] = tested on: patients with chronic atrial fibrillation; assay: PETRO phase 2 12-week dose finding study; format: in vivo, human; details: in vivo
From the text: Primary endpoints were bleeding events and changes in D-dimer. […] Minor bleeding was dose related.

[5] = tested on: patients with atrial fibrillation at risk of stroke; assay: RELY clinical trial (Randomized Evaluation of Long-term Anticoagulation Therapy); format: in vivo; details: for Stroke, systemic embolism, pulmonary embolism, myocardial infarction death or major bleed, Rate: net benefit
From the text: The primary study outcome was stroke or systemic embolism. The primary safety outcome was major hemorrhage. Secondary outcomes were stroke, systemic embolism and death. […] All other bleeding was considered minor.
All analyses were based on intention-to-treat.

[6] = tested on: patients who have nonvalvular atrial fibrillation; details: VKAs, such as warfarin; cited from earlier work
[7] = tested on: AF patients; details: SPORTIF V, cited from earlier work
[8] = tested on: AF patients; details: SPORTIF III, cited from earlier work
[9] = tested on: AF patients; details: ACTIVE W; cited from earlier work
[10] = individual patients with LFT abnormalities, # = with concomitant Bilirubin elevation to >2xULN
[11] = ximelagatran 36 mg b.i.d. vs warfarin

SMILES: [H]/N=C(/N)c1ccc(NCc2nc3cc(C(=O)N(CCC(=O)O)c4ccccn4)ccc3n2C)cc1 [Dabigatran]
- plasma half life ([1]; after multiple doses): 12 to 17 h
- time to steady-state ([1]; human, in vivo): 2 to 3 days
- time to peak levels ([1]; oral administration): 2 to 3 h
- fatal major bleeds, number ([2]; 150 mg b.i.d.): 4
- fatal major bleeds, number ([2]; 300 mg q.d.): 1
- fatal bleeding events ([2]; all doses): 0.5 % per year
- fatal major bleeds, number ([2]; all doses): five
- intracranial bleed rate ([2]; all doses): 0.4 % per year
- Final Outcome/Comment ([2]; individual patients with LFT abnormalities): Fatal; also recorded: Recovered
- LFT abnormality ALT/ULN [2, 10]: >5x (4×) and >5x^# (2×) and >3x (5×) and >3x^#
- LFT abnormality AST/ULN [2, 10]: >5x^# (4×) and >5x (4×) and >3x (5×)
- LFT abnormality resolved after stopping of dabigatran, number of cases ([2]; of the 16 on treatment cases): 5
- LFT abnormality resolved with continuation of dabigatran, number of cases ([2]; of the 16 on treatment cases): 10
- prolongation of activated partial thromboplastin time (aPTT), ecarin clotting time, and thrombin clotting time [3]: dose dependent prolongation
- change in D-dimer levels [4]: comparable to warfarin
- Myocardial Infarction, Rate ([5]; 110 mg b.i.d.): 0.73 /100 Person Years
- Rates of hemorrhagic stroke ([5]; 110 mg b.i.d.): 0.12 % per year
- Stroke, Ischemic or Unspecified, Rate ([5]; 110 mg b.i.d.): 1.35 /100 Person Years
- net benefit-risk outcome (major vascular events, major bleeding and death) rate ([5]; 110 mg b.i.d.): 7.37 % per year
- Myocardial Infarction, Rate ([5]; 150 mg b.i.d.): 0.74 /100 Person Years
- Rates of hemorrhagic stroke ([5]; 150 mg b.i.d.): 0.10 % per year
- net benefit-risk outcome (major vascular events, major bleeding and death) rate ([5]; 150 mg b.i.d.): 7.22 % per year
- rates of stroke and systemic embolism compared to warfarin ([5]; 150 mg b.i.d.): lower rates
- First Hospitalization, RR ([5]; Dabigatran 110 mg vs. Warfarin): 0.92
- Myocardial Infarction, RR ([5]; Dabigatran 110 mg vs. Warfarin): 1.35
- Non-disabling Stroke Modified Rankin 0-2, RR ([5]; Dabigatran 110 mg vs. Warfarin): 0.87
- Pulmonary embolism, RR ([5]; Dabigatran 110 mg vs. Warfarin): 1.26
- Stroke or systemic embolism, RR ([5]; Dabigatran 110 mg vs. Warfarin): 0.91
- Stroke, Hemorrhagic, RR ([5]; Dabigatran 110 mg vs. Warfarin): 0.31
- Stroke, Ischemic or Unspecified, RR ([5]; Dabigatran 110 mg vs. Warfarin): 1.12
- Stroke, RR ([5]; Dabigatran 110 mg vs. Warfarin): 0.92
- Stroke, Ischemic or Unspecified, RR ([5]; Dabigatran 150 mg vs. 110 mg): 0.68
- Stroke, RR ([5]; Dabigatran 150 mg vs. 110 mg): 0.70
- First Hospitalization, RR ([5]; Dabigatran 150 mg vs. Warfarin): 0.97
- Myocardial Infarction, RR ([5]; Dabigatran 150 mg vs. Warfarin): 1.38
- Non-disabling Stroke Modified Rankin 0-2, RR ([5]; Dabigatran 150 mg vs. Warfarin): 0.62
- Pulmonary embolism, RR ([5]; Dabigatran 150 mg vs. Warfarin): 1.61
- Stroke or systemic embolism, RR ([5]; Dabigatran 150 mg vs. Warfarin): 0.66
- Stroke, Hemorrhagic, RR ([5]; Dabigatran 150 mg vs. Warfarin): 0.26
- Stroke, Ischemic or Unspecified, RR ([5]; Dabigatran 150 mg vs. Warfarin): 0.76
- Stroke, RR ([5]; Dabigatran 150 mg vs. Warfarin): 0.64
- primary outcome compared to warfarin ([5]; both doses (110 mg and 150 mg b.i.d.)): non-inferior to warfarin
- Stroke, systemic embolism, pulmonary embolism, myocardial infarction death or major bleed, Rate ([5]; 110 mg b.i.d.): 7.37 /100 Person Years
- Stroke, systemic embolism, pulmonary embolism, myocardial infarction death or major bleed, Rate ([5]; 150 mg b.i.d.): 7.22 /100 Person Years

SMILES: CC(=O)CC(c1ccccc1)c1c(O)c2ccccc2oc1=O (racemic) [Warfarin, 3-(α-acetonylbenzyl)4-hydroxycoumarin]
- reduction of the risk of stroke compared to control [6]: 64%
- Myocardial Infarction ([7]; Warfarin vs. Ximelagatran): 1.4% (warfarin)
- Stroke and systemic embolism (per 100 patient years) [7, 11]: 1.2% (warfarin)
- Myocardial Infarction ([8]; Warfarin vs. Ximelagatran): 0.6% (warfarin)
- Stroke and systemic embolism (per 100 patient years) [8, 11]: 2.3% (warfarin)
- Myocardial Infarction [9]: 0.6% (warfarin)
- Stroke and systemic embolism (per 100 patient years) [9]: 1.5% (warfarin)
- mean time in therapeutic range ([5]; INR 2.0 to 3.0, method of Rosendaal): 64%
- Stroke, systemic embolism, pulmonary embolism, myocardial infarction death or major bleed, Rate ([5]; warfarin arm): 7.99 /100 Person Years
- ALT or AST >3xULN ([5]; warfarin arm): 2.1%
- ALT or AST >3xULN with concurrent bilirubin >2xULN ([5]; warfarin arm): 0.4%
- ALT or AST >3xULN with concurrent bilirubin >2xULN, number ([5]; warfarin arm): 22
- ALT or AST >3xULN, number ([5]; warfarin arm): 126
- Adverse Event: Arthralgia ([5]; warfarin arm): 5.5%
- Adverse Event: Arthralgia, number ([5]; warfarin arm): 328
- Adverse Event: Atrial fibrillation ([5]; warfarin arm): 5.4%
- Adverse Event: Atrial fibrillation, number ([5]; warfarin arm): 326
- Adverse Event: Back pain ([5]; warfarin arm): 5.5%
- Adverse Event: Back pain, number ([5]; warfarin arm): 331
- Adverse Event: Chest pain ([5]; warfarin arm): 5.7%
- Adverse Event: Chest pain, number ([5]; warfarin arm): 342
- Adverse Event: Cough ([5]; warfarin arm): 5.8%
- Adverse Event: Cough, number ([5]; warfarin arm): 345
- Adverse Event: Diarrhea ([5]; warfarin arm): 5.5%
- Adverse Event: Diarrhea, number ([5]; warfarin arm): 327
- Adverse Event: Dizziness ([5]; warfarin arm): 9.3%
- Adverse Event: Dizziness, number ([5]; warfarin arm): 555
- Adverse Event: Dyspepsia ([5]; warfarin arm): 1.4%
- Adverse Event: Dyspepsia, number ([5]; warfarin arm): 83
- Adverse Event: Dyspnoea ([5]; warfarin arm): 9.2%
- Adverse Event: Dyspnoea, number ([5]; warfarin arm): 550
- Adverse Event: Fatigue ([5]; warfarin arm): 5.9%
- Adverse Event: Fatigue, number ([5]; warfarin arm): 353
- Adverse Event: Nasopharyngitis ([5]; warfarin arm): 5.5%
- Adverse Event: Nasopharyngitis, number ([5]; warfarin arm): 327
- Adverse Event: Peripheral edema ([5]; warfarin arm): 7.6%
- Adverse Event: Peripheral edema, number ([5]; warfarin arm): 453
- Adverse Event: Upper respiratory tract infection ([5]; warfarin arm): 5.0%
- Adverse Event: Upper respiratory tract infection, number ([5]; warfarin arm): 297
- Adverse Event: Urinary tract infection ([5]; warfarin arm): 5.3%
- Adverse Event: Urinary tract infection, number ([5]; warfarin arm): 315
- All Death, Rate ([5]; warfarin arm): 4.13 /100 Person Years
- Any Major Bleeding, Rate ([5]; warfarin arm): 3.46 /100 Person Years
- Extracranial Bleeding, Rate ([5]; warfarin arm): 2.73 /100 Person Years
- First Hospitalization, Rate ([5]; warfarin arm): 27.5 /100 Person Years
- Intracranial Bleeding, Rate ([5]; warfarin arm): 0.72 /100 Person Years
- Major Bleeding, Life threatening, Rate ([5]; warfarin arm): 1.80 /100 Person Years
- Major Bleeding, Other Major, Rate ([5]; warfarin arm): 1.80 /100 Person Years
- Major gastro-intestinal Bleeding, Rate ([5]; warfarin arm): 1.03 /100 Person Years
- Major or Minor Bleeding, Rate ([5]; warfarin arm): 23.92 /100 Person Years
- Minor Bleeding, Rate ([5]; warfarin arm): 21.03 /100 Person Years
- Mortality rates (death from any cause) ([5]; warfarin arm): 4.13 % per year
- Myocardial Infarction, Rate ([5]; warfarin arm): 0.54 /100 Person Years
- Myocardial infarction rate ([5]; warfarin arm): 0.54 % per year
- Non-disabling Stroke Modified Rankin 0-2, Rate ([5]; warfarin arm): 0.58 /100 Person Years
- Pulmonary embolism, Rate ([5]; warfarin arm): 0.09 /100 Person Years
- Rates of hemorrhagic stroke ([5]; warfarin arm): 0.38 % per year
- Rates of major hemorrhage / major bleeding ([5]; warfarin arm): 3.46 % per year
- Reason for discontinuation: Gastrointestinal bleeding ([5]; warfarin arm): XXX (0.9) %
- Reason for discontinuation: Gastrointestinal disorders (including pain, vomiting and diarrhea) ([5]; warfarin arm): XXX (0.8) %
- Reason for discontinuation: Outcome event ([5]; warfarin arm): XXX (2.2) %
- Reason for discontinuation: Patient decision ([5]; warfarin arm): XXX (6.2) %
- Reason for discontinuation: SAE ([5]; warfarin arm): 1.6%
- Reason for discontinuation: SAE, number ([5]; warfarin arm): 95
- Stroke or systemic embolism, Rate ([5]; warfarin arm): 1.70 /100 Person Years
- Stroke, Hemorrhagic, Rate ([5]; warfarin arm): 0.38 /100 Person Years
- Stroke, Rate ([5]; warfarin arm): 1.58 /100 Person Years
- Study Drug Discontinuation At one year ([5]; warfarin arm): XXXX (10) %
- Study Drug Discontinuation At two years ([5]; warfarin arm): XXXX (19) %
- Vascular Death, Rate ([5]; warfarin arm): 2.69 /100 Person Years
- hepatobiliary disorders (AE) ([5]; warfarin arm): 2.2%
- hepatobiliary disorders (AE), number ([5]; warfarin arm): 132
- hepatobiliary disorders (SAE) ([5]; warfarin arm): 0.4%
- hepatobiliary disorders (SAE), number ([5]; warfarin arm): 25
- net benefit-risk outcome (major vascular events, major bleeding and death) rate ([5]; warfarin arm): 7.99 % per year
- rates of discontinuation at 2.5 years ([5]; warfarin arm): 19%
- stroke or systemic embolism (primary outcome) rate ([5]; warfarin arm): 1.70 % per year
- Study Drug Discontinuation At one year ([5]; warfarin arm, listed as warfarin): 10%

From patent publication US20120282187A1 (BOEHRINGER INGELHEIM INTERNATIONAL GMBH, priority 2008, published 2012)
